The series deals with rodent lifetime carcinogenesis bioassay, tumor incidence TD50. Nature of the series: chronic cancer bioassays in animals – CPDB, compiled studies (AID 1745844).

Activity calls are given as the source filed them. How the calls were made is not given here.

Consider `Cc1ccc(N=Nc2c(O)ccc3ccccc23)c([N+](=O)[O-])c1`, for which the TD50 (in general, the 50% point of the dose-response relation for the toxic effect studied) is 13800 mg/kg/day (mouse, strain B6C3F1, females, in feed, site: any site (literature study), lesion: several types, types named in the paper, dosed 103 weeks, study length 104 weeks); 204000 mg/kg/day (mouse, strain B6C3F1, females, in feed, site: liver, lesion: hepatocellular adenoma + hepatocellular carcinoma + neoplastic nodule, dosed 103 weeks, study length 104 weeks); 252000 mg/kg/day (mouse, strain B6C3F1, females, in feed, site: lung, lesion: alveolar/bronchiolar adenoma + alveolar/bronchiolar carcinoma, dosed 103 weeks, study length 104 weeks); 104000 mg/kg/day (inactive) (mouse, strain B6C3F1, females, in feed, site: lymph node, lesion: axillary histiocytic sarcoma + deep cervical, histiocytic sarcoma + iliac histiocytic sarcoma + inguinal histiocytic sarcoma + r, dosed 103 weeks, study length 104 weeks); 22700 mg/kg/day (mouse, strain B6C3F1, males, in feed, site: all sites, lesion: malignant lymphoma, histiocytic type + malignant lymphoma, mixed type, dosed 103 weeks, study length 104 weeks); 9420 mg/kg/day (mouse, strain B6C3F1, males, in feed, site: any site (literature study), lesion: several types, types named in the paper, dosed 103 weeks, study length 104 weeks). In addition, the TD50 was 19500 mg/kg/day (mouse, strain B6C3F1, males, in feed, site: kidney cortex + thyroid gland, lesion: adenoma + follicular-cell adenoma, dosed 103 weeks, study length 104 weeks); 35500 mg/kg/day (mouse, strain B6C3F1, males, in feed, site: kidney cortex, lesion: adenoma, dosed 103 weeks, study length 104 weeks); 17900 mg/kg/day (mouse, strain B6C3F1, males, in feed, site: liver, lesion: hepatocellular adenoma + hepatocellular carcinoma + neoplastic nodule, dosed 103 weeks, study length 104 weeks); 36900 mg/kg/day (mouse, strain B6C3F1, males, in feed, site: lung, lesion: alveolar/bronchiolar adenoma + alveolar/bronchiolar carcinoma, dosed 103 weeks, study length 104 weeks); 38300 mg/kg/day (mouse, strain B6C3F1, males, in feed, site: thyroid gland, lesion: follicular-cell adenoma, dosed 103 weeks, study length 104 weeks); 5240 mg/kg/day (rat, strain Fischer 344, females, in feed, site: liver, lesion: hepatocellular adenoma + hepatocellular carcinoma + neoplastic nodule, dosed 103 weeks, study length 104 weeks). The TD50 by setting is: (rat, strain Fischer 344, females, in feed, site: liver, lesion: hepatocellular adenoma, dosed 103 weeks, study length 104 weeks) 5240 mg/kg/day; (rat, strain Fischer 344, males, in feed, site: Zymbal's gland, lesion: carcinoma, dosed 103 weeks, study length 104 weeks) 9010 mg/kg/day; (rat, strain Fischer 344, males, in feed, site: adrenal medulla, lesion: pheochromocytoma, benign, dosed 103 weeks, study length 104 weeks) 674 mg/kg/day; (rat, strain Fischer 344, males, in feed, site: adrenal medulla, lesion: pheochromocytoma, malignant + pheochromocytoma, benign, dosed 103 weeks, study length 104 weeks) 661 mg/kg/day; (rat, strain Fischer 344, males, in feed, site: any site (literature study), lesion: several types, types named in the paper, dosed 103 weeks, study length 104 weeks) 906 mg/kg/day; (rat, strain Fischer 344, males, in feed, site: liver, lesion: hepatocellular adenoma + hepatocellular carcinoma + neoplastic nodule, dosed 103 weeks, study length 104 weeks) 5170 mg/kg/day. Besides, the TD50 by setting is: (rat, strain Fischer 344, males, in feed, site: skin, lesion: carcinoma + squamous-cell papilloma, dosed 103 weeks, study length 104 weeks) 3660 mg/kg/day; (rat, strain Fischer 344, males, in feed, site: skin, lesion: squamous-cell papilloma, dosed 103 weeks, study length 104 weeks) 2540 mg/kg/day.
Take `O=P(O)(O)O`: the TD50 (mouse, strain B6C3F1, females, by gavage, site: any site (literature study), lesion: several types, types named in the paper, dosed 103 weeks, study length 105 weeks) was 958 mg/kg/day; the TD50 (mouse, strain B6C3F1, females, by gavage, site: liver, lesion: hepatocellular adenoma + hepatocellular carcinoma + neoplastic nodule, dosed 103 weeks, study length 105 weeks) is 3710 mg/kg/day; the TD50 (mouse, strain B6C3F1, females, by gavage, site: subcutaneous tissue, lesion: sarcoma, NOS, dosed 103 weeks, study length 105 weeks) was 1490 mg/kg/day (inactive); the TD50 (mouse, strain B6C3F1, males, by gavage, site: adrenal gland, lesion: cortical adenoma, dosed 103 weeks, study length 104 weeks) was 5840 mg/kg/day (inactive); the TD50 (mouse, strain B6C3F1, males, by gavage, site: any site (literature study), lesion: several types, types named in the paper, dosed 103 weeks, study length 104 weeks) amounted to 11600 mg/kg/day; the TD50 (mouse, strain B6C3F1, males, by gavage, site: liver, lesion: hepatocellular adenoma + hepatocellular carcinoma + neoplastic nodule, dosed 103 weeks, study length 104 weeks) came out at 2950 mg/kg/day. Also, the TD50 (mouse, strain B6C3F1, males, by gavage, site: lung, lesion: alveolar/bronchiolar adenoma + alveolar/bronchiolar carcinoma, dosed 103 weeks, study length 104 weeks) was 19900 mg/kg/day and the TD50 (mouse, strain B6C3F1, males, by gavage, site: multiple organs, lesion: malignant lymphoma, lymphocytic type, dosed 103 weeks, study length 104 weeks) was determined as 8420 mg/kg/day.
For `C=CC=O`, the carcinogen call is “negative (inactive)” (mouse, strain Charles River CD1, females, by gavage, site: liver, lesion: hepatocellular adenoma, dosed 78 weeks, study length 78 weeks); “negative (inactive)” (mouse, strain Charles River CD1, females, by gavage, site: lung, lesion: alveolar/bronchiolar adenoma, dosed 78 weeks, study length 78 weeks); “negative (inactive)” (mouse, strain Charles River CD1, males, by gavage, site: liver, lesion: hepatocellular adenoma, dosed 78 weeks, study length 78 weeks); “negative (inactive)” (mouse, strain Charles River CD1, males, by gavage, site: liver, lesion: hepatocellular carcinoma, dosed 78 weeks, study length 78 weeks). Further, the TD50 (mouse, strain Charles River CD1, females, by gavage, site: lung, lesion: alveolar/bronchiolar carcinoma, dosed 78 weeks, study length 78 weeks) was 90.3 mg/kg/day (inactive); the TD50 (mouse, strain Charles River CD1, males, by gavage, site: lung, lesion: alveolar/bronchiolar adenoma, dosed 78 weeks, study length 78 weeks) is 526 mg/kg/day (inactive); the TD50 (mouse, strain Charles River CD1, males, by gavage, site: lung, lesion: alveolar/bronchiolar carcinoma, dosed 78 weeks, study length 78 weeks) is 62.6 mg/kg/day (inactive); the TD50 (rat, strain Fischer 344, females, in drinking water, site: adrenal gland, lesion: cortical adenoma, dosed 104 weeks, study length 132 weeks) is 93.9 mg/kg/day; the TD50 (rat, strain Fischer 344, females, in drinking water, site: liver, lesion: hepatocellular carcinoma, dosed 104 weeks, study length 132 weeks) amounted to 433 mg/kg/day; the TD50 (rat, strain Fischer 344, females, in drinking water, site: liver, lesion: hyperplastic nodule, dosed 104 weeks, study length 132 weeks) turned out to be 388 mg/kg/day. For the same molecule, the TD50 runs as follows: (rat, strain Fischer 344, females, in drinking water, site: liver, lesion: several types, types named in the paper, dosed 104 weeks, study length 132 weeks) 188 mg/kg/day; (rat, strain Fischer 344, males, in drinking water, site: forestomach, lesion: one or several types, types not named, dosed 117 weeks, study length 132 weeks) 14.4 mg/kg/day; (rat, strain Fischer 344, males, in drinking water, site: liver, lesion: hepatocellular carcinoma, dosed 117 weeks, study length 132 weeks) 1320 mg/kg/day; (rat, strain Sprague-Dawley, females, by gavage, site: adrenal gland, lesion: pheochromocytoma, dosed 104 weeks, study length 104 weeks) 5.53 mg/kg/day; (rat, strain Sprague-Dawley, females, by gavage, site: liver, lesion: hepatocellular adenoma, dosed 104 weeks, study length 104 weeks) 214 mg/kg/day; (rat, strain Sprague-Dawley, males, by gavage, site: adrenal gland, lesion: cortical adenoma, dosed 104 weeks, study length 104 weeks) 0.471 mg/kg/day. In addition, the TD50 was determined as 57.7 mg/kg/day (rat, strain Sprague-Dawley, males, by gavage, site: adrenal gland, lesion: cortical carcinoma, dosed 104 weeks, study length 104 weeks) and 24.7 mg/kg/day (rat, strain Sprague-Dawley, males, by gavage, site: liver, lesion: hepatocellular adenoma, dosed 104 weeks, study length 104 weeks).
Consider `CCN(Cc1cccc(S(=O)(=O)O)c1)c1ccc(C(=C2C=CC(=[N+](CC)Cc3cccc(S(=O)(=O)[O-])c3)C=C2)c2ccccc2)cc1`, for which the TD50 runs as follows: (mouse, strain C3HeB/FeJ, females, in feed, site: any site (literature study), lesion: malignant tumor, dosed 104 weeks, study length 104 weeks) 18400 mg/kg/day (inactive); (mouse, strain C3HeB/FeJ, females, in feed, site: liver, lesion: several types, types named in the paper, dosed 104 weeks, study length 104 weeks) 146000 mg/kg/day (inactive); (mouse, strain C3HeB/FeJ, females, in feed, site: lung, lesion: adenoma, dosed 104 weeks, study length 104 weeks) 146000 mg/kg/day (inactive); (mouse, strain C3HeB/FeJ, males, in feed, site: any site (literature study), lesion: several types, types named in the paper, dosed 104 weeks, study length 104 weeks) 20800 mg/kg/day (inactive); (mouse, strain C3HeB/FeJ, males, in feed, site: liver, lesion: several types, types named in the paper, dosed 104 weeks, study length 104 weeks) 26100 mg/kg/day (inactive); (mouse, strain C3HeB/FeJ, males, in feed, site: lung, lesion: several types, types named in the paper, dosed 104 weeks, study length 104 weeks) 59200 mg/kg/day. Besides, the TD50 is 97500 mg/kg/day (rat, strain Osborne-Mendel, females, in feed, site: any site (literature study), lesion: several types, types named in the paper, dosed 104 weeks, study length 104 weeks); 13800 mg/kg/day (rat, strain Osborne-Mendel, females, in feed, site: liver, lesion: several types, types named in the paper, dosed 104 weeks, study length 104 weeks); 11400 mg/kg/day (rat, strain Osborne-Mendel, males, in feed, site: any site (literature study), lesion: several types, types named in the paper, dosed 104 weeks, study length 104 weeks); 5980 mg/kg/day (rat, strain Osborne-Mendel, males, in feed, site: liver, lesion: several types, types named in the paper, dosed 104 weeks, study length 104 weeks); 8370 mg/kg/day (rat, strain Wistar, both sexes, in feed, site: abdomen, lesion: malignant lymphoma, dosed 93 weeks, study length 93 weeks); 8370 mg/kg/day (rat, strain Wistar, both sexes, in feed, site: mediastinum, lesion: malignant lymphoma, dosed 93 weeks, study length 93 weeks). For the same molecule, the TD50 (rat, strain Wistar, both sexes, in feed, site: several sites, sites named in the paper, lesion: malignant lymphoma, dosed 93 weeks, study length 93 weeks) was 3920 mg/kg/day. The carcinogen call is, setting by setting: (mouse, strain C3HeB/FeJ, females, in feed, site: any site (literature study), lesion: several types, types named in the paper, dosed 104 weeks, study length 104 weeks) “negative (inactive)”; (mouse, strain C3HeB/FeJ, males, in feed, site: any site (literature study), lesion: malignant tumor, dosed 104 weeks, study length 104 weeks) “negative (inactive)”; (rat, strain Osborne-Mendel, females, in feed, site: any site (literature study), lesion: malignant tumor, dosed 104 weeks, study length 104 weeks) “negative (inactive)”; (rat, strain Osborne-Mendel, males, in feed, site: any site (literature study), lesion: malignant tumor, dosed 104 weeks, study length 104 weeks) “negative (inactive)”.
In the case of `O=C(O)CNCC(=O)O`, under “rat, strain MRC, females, in drinking water, site: any site (literature study), lesion: several types, types named in the paper, dosed 84 weeks, study length 104 weeks”, the TD50 is 143 mg/kg/day (inactive). The carcinogen call (rat, strain MRC, males, in drinking water, site: any site (literature study), lesion: several types, types named in the paper, dosed 84 weeks, study length 104 weeks) is “negative (inactive)”.

Source of the values: PubChem BioAssay AID1745844 (Carcinogenic Potency Database (CPDB), 2022).
